Measured values taken from patent US20130045940A1, “COMPOSITION COMPRISING AS ACTIVE INGREDIENT L-CARNITINE IN COMBINATION WITH A SOLAR FILTER, FOR THE PREVENTION AND/OR TREATMENT OF PATHOLOGIES OF THE EYE DUE TO ULTRAVIOLET RADIATION” (SIGMA-TAU INDUSTRIE FARMACEUTICHE RIUNITE S.P.A., priority 2010, published 2013).

Key:
[1] = test system: functional retinal status; assay: functional retinal status (FERG, mfERG) in subjects with age-related maculopathy, 6 months of eye drops; assay type: in vivo, human; conditions: for amplitudes found with the FERG / mfERG: after 6 months treatment vs before; for SCORE AFTER 6 MONTHS OF TREATMENT (ARBITRARY SCALE): three times a day for 6 months, 0 = no variation respect to time zero, −10 = worsening of the symptoms
Experimental: In order to evaluate the protective effect of the eye drops being examined on the internal structures of the eye in subjects suffering from age-related maculopathy, the following experimental procedure was carried out. 24 Subjects between 49 and 74 years of age, irrespective of gender, received for 6 months the eye drops of Example 1 (complete composition) three times a day. Subjects were subdivided into 4 equal groups and treated as reported in the following: The functional retinal status of the patients was evaluated using the focal electroretinogram (FERG) and the multifocal electroretinogram (mfERG) methods, before and after 6 months treatment. These two methods are useful for evaluating the electrical activity of the 30° retinal centres (Invest. Ophthalmol. Vis. Sci., 1986; 27: 1123-1130; Eye, 2005; 19:431-441).

corneal epithelium = assay: protective effect on the corneal epithelium against UV A/B radiation in rabbits (morphology, TUNEL); assay type: in vivo, rabbit; conditions: for damage to the DNA (TUNEL) / corneal tissue morphology (hematoxylin-eosin): treated left eye after UV exposure; for corneal tissue morphology (hematoxylin-eosin): compared with untreated animals; for EYE LEFT Score (arbitrary scale): treated left eye, instilled every 2 hours for eight hours, then 2091 seconds of UV 290/360 nm, Negative Control = 10, UV-exposed untreated right eye = 1
Experimental: In all the groups treated (groups 1-4) the right eye acted as a positive control. The following compositions were instilled respectively into the left eye every 2 hours for eight hours:
Then the animals were exposed for 2091 seconds to UV radiation using a xenon-mercury lamp, 5000 W, 290/360 nm, (Photochem. Photobiol. 1989; 49:175-180) after which the animals were killed and the eyeballs removed and placed in a fixative (4% paraformaldehyde). The cornea was then removed, included in paraffin and then evaluated for its morphological aspects and the cellular degeneration. The morphology was examined by means of hematoxylin-eosin staining whereas the cellular parameters were examined with vital exclusion stains and the TUNEL technique (analysis of DNA fragmentation, by means of terminal transferase, as a consequence of cellular stress) (Arch. Ophthalmol. 1987; 115:1031-1035).

[2] = solubility of 3-HKG in water; assay type: physicochemical; conditions: amount of 0.1 mg/mL (as in WO2008/077712)

Compound	amplitudes found with the FERG [1]	mfERG [1]	SCORE AFTER 6 MONTHS OF TREATMENT (ARBITRARY SCALE) [1]	damage to the DNA (TUNEL) (corneal epithelium)	corneal tissue morphology (hematoxylin-eosin) (corneal epithelium)	EYE LEFT Score (arbitrary scale) (corneal epithelium)	solubility in water [2]
Nc1c(O[C@@H]2O[C@H](CO)[C@@H](O)[C@H](O)[C@H]2O)cccc1C(=O)CC(N)C(=O)O (mixture of isomers) [Group 3, 3-Hydroxykynurenine O-β-DL-glucoside]	substantial stability	significant worsening	−4 arbitrary scale	no damage to the DNA was seen	tissue appeared damaged although this was not very apparent	4 arbitrary scale	not (completely) soluble in water
C[N+](C)(C)C[C@H](O)CC(=O)[O-] [Group 2, L-carnitine]	reduction	significant worsening	−6 arbitrary scale	no damage to the DNA was seen	tissue appeared damaged	3 arbitrary scale	–
